PubChem BioAssay (NCI)
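Five concentrations, 48 hours, 96-well plates. TGI denotes the concentration required for complete inhibition of growth.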

Experiments:
Assay in all cases: NCI tumour cell line growth inhibition, 48 h
[1] = system: IGROV1 ovarian
[2] = system: SR leukemia
[3] = system: KM12 colon
[4] = system: SF-539 CNS
[5] = system: NCI-H226 lung
[6] = system: HCC-2998 colon
[7] = system: A549 NSCLC
[8] = system: RXF 393 renal
[9] = system: UO-31 renal
[10] = system: SK-MEL-28 melanoma
[11] = system: HT29 colon
[12] = system: OVCAR-4 ovarian
[13] = system: SK-MEL-5 melanoma
[14] = system: MOLT-4 leukemia
[15] = system: LXFL 529 NSCLC
[16] = system: SNB-19 CNS
[17] = system: HCT-116 colon
[18] = system: SF-295 CNS
[19] = system: TK-10 renal
[20] = system: SK-MEL-2 melanoma
[21] = system: NCI-H23 lung
[22] = system: K-562 leukemia
[23] = system: SK-OV-3 ovarian
[24] = system: ACHN renal
[25] = system: DMS 273 small cell lung
[26] = system: UACC-62 melanoma
[27] = system: HOP-92 NSCLC
[28] = system: SN12C renal
[29] = system: OVCAR-8 ovarian
[30] = system: U251 CNS
[31] = system: SW-620 colon
[32] = system: RPMI-8226 leukemia
[33] = system: CAKI-1 renal
[34] = system: XF 498 CNS
[35] = system: NCI-H460 lung
[36] = system: OVCAR-3 ovarian
[37] = system: SNB-78 CNS
[38] = system: EKVX NSCLC
[39] = system: DLD-1 colon
[40] = system: KM20L2 colon
[41] = system: HOP-18 NSCLC
[42] = system: DMS 114 small cell lung
[43] = system: OVCAR-5 ovarian
[44] = system: M19-MEL melanoma
[45] = system: UACC-257 melanoma
[46] = system: COLO 205 colon
[47] = system: HCT-15 colon
[48] = system: RXF-631 renal
[49] = system: M14 melanoma
[50] = system: MALME-3M melanoma
[51] = system: HL-60(TB) leukemia
[52] = system: CCRF-CEM leukemia
[53] = system: NCI-H522 lung
[54] = system: SNB-75 CNS
[55] = system: SF-268 CNS
[56] = system: 786-0 renal
[57] = system: HOP-62 NSCLC
[58] = system: A498 renal
[59] = system: LOX IMVI melanoma
[60] = system: P388 leukemia
[61] = system: P388/ADR leukemia
[62] = system: MCF7 breast
[63] = system: NCI/ADR-RES ovarian
[64] = system: SN12K1 renal

Compound: Cc1ccc(C2OC(COCc3ccc(Cl)cc3)C(OCc3ccc(Cl)cc3)C2O)cc1 (stereo not given)
- TGI [1]: 35.5 µM
- TGI [2]: > 100 µM
- TGI [3]: 71.2 µM
- TGI [4]: 36.2 µM
- TGI [5]: 38.5 µM
- TGI [6]: 72.7 µM
- TGI [7]: 30.1 µM
- TGI [8]: 10.8 µM
- TGI [9]: 23.8 µM
- TGI [10]: > 100 µM
- TGI [11]: 26.2 µM
- TGI [12]: 40.9 µM
- TGI [13]: 25.9 µM
- TGI [14]: > 100 µM
- TGI [15]: 58.5 µM
- TGI [16]: 56.7 µM
- TGI [17]: > 100 µM
- TGI [18]: 32 µM
- TGI [19]: 29.7 µM
- TGI [20]: 31 µM
- TGI [21]: 40.3 µM
- TGI [22]: > 100 µM
- TGI [23]: 15.3 µM
- TGI [24]: 41.8 µM
- TGI [25]: 18.9 µM
- TGI [26]: 18.7 µM
- TGI [27]: 15.6 µM
- TGI [28]: 13.1 µM
- TGI [29]: 36.9 µM
- TGI [30]: 34.2 µM
- TGI [31]: 49.5 µM
- TGI [32]: 81.2 µM
- TGI [33]: 38.3 µM
- TGI [34]: 22.6 µM
- TGI [35]: 14.9 µM
- TGI [36]: 27.5 µM
- TGI [37]: 29.6 µM
- TGI [38]: 40 µM
- TGI [39]: 34.1 µM
- TGI [40]: 56.1 µM
- TGI [41]: > 100 µM
- TGI [42]: 22.2 µM
- TGI [43]: > 100 µM
- TGI [44]: 38.1 µM
- TGI [45]: 43.1 µM
- TGI [46]: > 100 µM
- TGI [47]: > 100 µM

Compound: C[N+](C)(C)CCc1ccccc1
- TGI [1]: > 100 µM
- TGI [2]: > 100 µM
- TGI [48]: > 100 µM
- TGI [3]: > 100 µM
- TGI [49]: > 100 µM
- TGI [4]: > 100 µM
- TGI [5]: > 100 µM
- TGI [6]: > 100 µM
- TGI [50]: > 100 µM
- TGI [7]: > 100 µM
- TGI [8]: > 100 µM
- TGI [51]: > 100 µM
- TGI [9]: > 100 µM
- TGI [10]: > 100 µM
- TGI [52]: > 100 µM
- TGI [11]: > 100 µM
- TGI [12]: > 100 µM
- TGI [13]: > 100 µM
- TGI [14]: > 100 µM
- TGI [15]: > 100 µM
- TGI [16]: > 100 µM
- TGI [17]: > 100 µM
- TGI [18]: > 100 µM
- TGI [53]: > 100 µM
- TGI [19]: > 100 µM
- TGI [20]: > 100 µM
- TGI [21]: > 100 µM
- TGI [22]: > 100 µM
- TGI [54]: > 100 µM
- TGI [23]: > 100 µM
- TGI [55]: > 100 µM
- TGI [24]: > 100 µM
- TGI [25]: > 100 µM
- TGI [26]: > 100 µM
- TGI [27]: > 100 µM
- TGI [28]: > 100 µM
- TGI [29]: > 100 µM
- TGI [30]: > 100 µM
- TGI [56]: > 100 µM
- TGI [31]: > 100 µM
- TGI [32]: > 100 µM
- TGI [57]: > 100 µM
- TGI [33]: > 100 µM
- TGI [58]: > 100 µM
- TGI [34]: > 100 µM
- TGI [35]: > 100 µM
- TGI [36]: > 100 µM
- TGI [37]: > 100 µM
- TGI [38]: > 100 µM
- TGI [39]: > 100 µM
- TGI [40]: > 100 µM
- TGI [42]: > 100 µM
- TGI [43]: > 100 µM
- TGI [59]: > 100 µM
- TGI [44]: > 100 µM
- TGI [45]: > 100 µM
- TGI [46]: > 100 µM
- TGI [47]: > 100 µM

Compound: CCCNC(=O)C(C)C1CCC2(C)C=CC(=O)C(C)=C2C1O (stereo not given)
- TGI [1]: > 100 µM
- TGI [3]: > 100 µM
- TGI [4]: > 100 µM
- TGI [5]: > 100 µM
- TGI [6]: > 100 µM
- TGI [60]: > 100 µM
- TGI [7]: > 100 µM
- TGI [8]: > 100 µM
- TGI [51]: > 100 µM
- TGI [9]: > 100 µM
- TGI [10]: > 100 µM
- TGI [52]: > 100 µM
- TGI [11]: > 100 µM
- TGI [12]: > 100 µM
- TGI [13]: > 100 µM
- TGI [14]: > 100 µM
- TGI [61]: > 100 µM
- TGI [16]: > 100 µM
- TGI [17]: > 100 µM
- TGI [18]: > 100 µM
- TGI [53]: > 100 µM
- TGI [20]: > 100 µM
- TGI [21]: > 100 µM
- TGI [22]: > 100 µM
- TGI [54]: > 100 µM
- TGI [23]: > 100 µM
- TGI [55]: > 100 µM
- TGI [25]: > 100 µM
- TGI [26]: > 100 µM
- TGI [27]: > 100 µM
- TGI [28]: > 100 µM
- TGI [62]: > 100 µM
- TGI [29]: > 100 µM
- TGI [30]: > 100 µM
- TGI [63]: > 100 µM
- TGI [31]: > 100 µM
- TGI [32]: > 100 µM
- TGI [57]: > 100 µM
- TGI [33]: > 100 µM
- TGI [58]: > 100 µM
- TGI [34]: > 100 µM
- TGI [35]: > 100 µM
- TGI [36]: > 100 µM
- TGI [38]: > 100 µM
- TGI [64]: > 100 µM
- TGI [39]: > 100 µM
- TGI [40]: > 100 µM
- TGI [41]: > 100 µM
- TGI [42]: > 100 µM
- TGI [43]: > 100 µM
- TGI [59]: > 100 µM
- TGI [44]: > 100 µM
- TGI [45]: > 100 µM
- TGI [46]: > 100 µM
- TGI [47]: > 100 µM
